The test system of experiment [1] is OVA-responding OT-I (CD8) cells. Nature of the experiment: Antigen cross-presentation assay: pulsed BMDCs co-cultured with OT-I CD8 T-cells, IFN-gamma by ELISA. Type of experiment: cell-based, mouse. As to conditions: BMDCs pulsed 3 h with highest enhancer:OVA ratios tested; co-culture with OT-I CD8 T-cells; FIG. 1. The method, then: Mouse BMDCs were pulsed for 3 hours with antigen (OVA) alone, cholic acid (CA) alone, a cholic acid-NLS peptide conjugate (CA-SV40NLS) alone, different ratios of CA to antigen (CA:OVA=22:1, 12:1, 8:1, 4:1, and 2:1), or different ratios of an cholic acid-NLS peptide conjugate to antigen (CA-SV40NLS:OVA=22:1, 12:1, 8:1, 4:1, and 2:1). The pulsed BMDCs were then co-cultured with OT-I mouse-derived CD8 T-cells and IFN-gamma levels were quantified as a measure of cross presentation activity.
Mouse bone marrow derived dendritic cells (BMDCs) were generated by flushing the whole marrow from mouse femurs using RPMI™ 1640 supplemented with 10% fetal bovine serum (FBS), 50 U/mL Penicillin-Streptomycin, 2 mM L-glutamine, 10 mM HEPES, 1% MEM Non-essential Amino Acids, 1 mM Sodium Pyruvate, 0.5 mM beta-mercaptoethanol. […] Mature DCs were assessed by flow cytometry for their surface expression of CD3, CD19, NK1.1, CD11c, CD80, CD86, and I-Ab.
To evaluate antigen cross-presentation, cells were seeded at 25×10^3 cells per well in 24-well plates (Corning; Massachusetts, United States), then pulsed with antigens or antigen-containing mixtures at different concentrations for 3 h. […] After 72 hours, supernatants were collected and used to quantify cytokine production by commercial enzyme-linked immunosorbent assays (ELISAs). […]
(In general: An ELISA detects its analyte on a solid surface through an enzyme-linked reagent.)

In experiment [2] the test system is B3Z cells. Nature of the experiment: Antigen-presentation assay using the B3Z reporter system, BMDCs as antigen presenting cells. Type of experiment: cell-based, mouse. From the text:
For this experiment, BMDCs were used as the antigen presenting cells (n=6) and the molar ratio (bile acid/peptide/conjugate): antigen was 4:1. Controls tested included no antigen (“PBS”), antigen alone (“OVA alone”), unconjugated NLS peptide (“SV40NLS”), unconjugated cholic acid mixed with OVA (“CA”), and the positive control peptide SIINFEKL (SEQ ID NO: 9) mixed with OVA (“SIINFEKL”). The dashed line represents the signal obtained with OVA alone. Bile acids: cholic acid (CA); glycodeoxycholic acid (GDCA); glycochenodeoxycholic acid (GCDCA); ursodeoxycholic acid (UDCA); and lithocholic acid (LCA).
The dashed line represents the signal obtained with OVA alone. The readout was taken after 24 h of incubation and error bars represent SD (n=6). For this experiment, BMDCs were used as the antigen presenting cells.
The dashed line represents the signal obtained with OVA alone. Readout was taken after 24 h of incubation from a single experiment. The molar ratio of CA-peptide conjugate: OVA was 22:1. For this experiment, BMDCs were used as the antigen presenting cells.
For this experiment, BMDCs were used as the antigen presenting cells. The dashed line represents the signal obtained with OVA alone. Readout was taken after 24 h of incubation from a single experiment. The molar ratio of CA-peptide conjugate: OVA was as follows: CA-GWG-SV40NLS (12:1); CA-hnRNP M NLS (12:1); CA-NLS2-RPS17 NLS (22:1); CA-HuR NLS (22:1); CA-cMyc NLS (2:1); CA-NLS3-RPS17 NLS (22:1); CA-NLS2-RG-RPS17 NLS (2:1); CA-PQBP1 NLS (8:1); CA-hnRNPA1 M9 NLS (22:1); and CA-SV40 NLS (2:1).
(§1) Various bile acid-NLS conjugates were screened using the B3Z reporter system. The B3Z cell line is a T-cell hybridoma specific for the H2-K^b-SIINFEKL complex. Once activated via its TCR, the LacZ reporter gene (under the NFAT promoter control) is expressed. Briefly, 1.5×10^5 BMDCs or 2.5×10^5 MSCs were co-cultured with 5×10^4 B3Z cells treated with the mixing conditions of ovalbumin (OVA) and bile acid-NLS conjugates for overnight at 37° C. with 5% CO2. The following day, all cells were washed twice with PBS (pH 7.4), and the cell pellets were lysed by adding 100 μL of a lysis buffer containing 0.15 mM chlorophenol red-beta-D-galactopyranoside (CPRG) substrate (Calbiochem, La Jolla, Calif.), 0.125% NP40 (EMD Sciences, La Jolla, Calif.), 9 mM MgCl2 (Aldrich, USA) and 100 mM 2-mercaptoethanol in PBS. After a 5- or 24-h incubation at 37° C., absorbance was taken at 570 nm with 636 nm as the reference wavelength. For these experiments, OVA was re-suspended in PBS (pH 7.3) at 5-10 mg/mL. The different bile acid-NLS conjugates were re-suspended in H2O at 10 mg/mL. Bile acid-NLS conjugate: antigen mixtures were prepared at different molar ratios according to Table 2.
Variants of CA-SV40NLS were synthesized in order to explore structure-activity relationships relating to the antigen cross-presentation enhancing activity observed for this conjugate. More particularly, conjugates having different bile acids conjugated to the SV40NLS peptide (SEQ ID NO: 1) were synthesized and their effect on antigen presentation was evaluated by using the B3Z reporter system with the OVA antigen as described in Example 1. […] In FIG. 2, no increase in antigen cross-presentation over the antigen alone (“OVA”) was observed when OVA was mixed with either unconjugated cholic acid (“CA”) or SV40NLS peptide (“SV40NLS”), although lower sensitivity of the B3Z reporter system as compared to the OT-I CD8 T cell-based assay used in FIG. 1 may have been a factor.
(§2) Further variants of CA-SV40NLS were synthesized in which the SV40NLS peptide was replaced with peptides comprising other NLS's (Table 3) and the antigen presentation activities of the CA-NLS peptide conjugates were evaluated using the B3Z reporter system as described in Example 1. The following conjugate:antigen molar ratios were tested for each conjugate: 2:1, 4:1, 8:1, 12:1 and 22:1. […]

The test system of a further experiment is GII.3 human norovirus. As to conditions: host intestinal cells; free bile acids; cited from earlier work.
Experiment [3] relates to B3Z cells. Nature of the experiment: Antigen-presentation assay using the B3Z reporter system, cross-presenting MSC line as antigen presenting cells. Type of experiment: cell-based. As to conditions: compared to OVA alone or OVA mixed with CA-SV40NLS, FIG. 6. The method, then:
For this experiment, a cross-presentation mesenchymal stromal cell (MSC) line was used as the antigen presenting cells. The dashed line represents the signal obtained with OVA alone. Readout was taken after 24 h of incubation. The molar ratio of CA-peptide conjugate: OVA was as follows: CA-GWG-SV40NLS (2:1); CA-hnRNP M NLS (8:1); CA-hnRNP D NLS (12:1); CA-NLS2-RG-RPS17 (4:1); CA-cMyc NLS (12:1); CA-HuR NLS (12:1); CA-Tus NLS (2:1); CA-NLS2-RPS17 NLS (4:1); CA-PQBP1 NLS (12:1); CA-hnRNPA1 M9 NLS (2:1); and CA-SV40 NLS (2:1).
as §1, §2

Experiment [4] concerns cross-presenting mesenchymal stromal cell (MSC) line. Put plainly: Antigen internalization: MSC line pulsed with OVA labelled with Alexa Fluor 647, flow cytometry. Type of experiment: cell-based. The note with it: various conjugate:OVA molar ratios, FIGS. 7A-7D. The method, then: FIGS. 7A to 7D show the effect of different NLS peptides on the antigen internalization activity of cholic acid-NLS peptide conjugates. For this experiment, a cross-presenting mesenchymal stromal cell (MSC) line was used as the antigen presenting cells, which were pulsed with OVA labelled with Alexa Fluor 647 (i.e., OVA^647)™. OVA^647 fluorescence was measured by flow cytometry. Different ratios of CA (NLS1 RPS17 [FIG. 7A]; NLS3 RPS17 [FIG. 7B]; PQBP-1 [FIG. 7C]; and hnRNPA1 M9 NLS [FIG. 7D]) to antigen (CA:OVA=22:1, 12:1, 8:1, 4:1, and 2:1) were tested (hnRNPA1 M9 NLS at 2:1).
(§3) To further dissect the effect of bile acid peptide conjugates on antigen presentation, antigen internalization and processing were evaluated. MSC cell lines were pulsed with OVA-labelled with AF647 in the presence of various molar ratios of different bile acid peptide conjugates, NLS1-RPS17 [FIG. 7A]; NLS3 RPS17 [FIG. 7B]; PQBP-1 [FIG. 7C]; and hnRNPA1 M9 NLS [FIG. 7D]) and fluorescence was assessed by flow cytometry. […] OVA processing was assessed by pulsing MSC cell lines with DQ™-Ovalbumin (OVA-DQ) in the presence of the same bile acid peptide conjugates as in FIGS. 7A to 7D.
A general note: A flow cytometer gives signals particle by particle.

The test system is the same in experiment [5]. Put plainly: Antigen processing: MSC line pulsed with DQ Ovalbumin (OVA-DQ), flow cytometry. Type of experiment: cell-based. The note with it: various conjugate:OVA molar ratios, FIGS. 8A-8D. The method, then: FIGS. 8A to 8D show the effect of different NLS peptides on the antigen processing activity of cholic acid-NLS peptide conjugates. For this experiment, a cross-presenting mesenchymal stromal cell (MSC) line was used as the antigen presenting cells, which were pulsed with DQ™ Ovalbumin (i.e., OVA^DQ). OVA^DQ fluorescence was measured by flow cytometry. Different ratios of CA (NLS1 RSP17 [FIG. 8A]; NLS3 RPS17 [FIG. 8B]; PQBP-1 [FIG. 8C]; and hnRNPA1 M9 NLS [FIG. 8D]) to antigen (CA:OVA=22:1, 12:1, 8:1, 4:1, and 2:1) were tested (hnRNPA1 M9 NLS at 2:1).
as §3

No end group written: not given here.

With `C[C@H](CCC(=O)O)[C@H]1CC[C@H]2[C@@H]3[C@H](O)C[C@@H]4C[C@H](O)CC[C@]4(C)[C@H]3C[C@H](O)[C@]12C` [CA, cholic acid], the “increase in the amount of IFN-gamma produced, as compared to BMDCs pre-pulsed with the OVA antigen alone” value in experiment [1] is “up to 3 fold”. For the same compound, in the experiment on B3Z cells [2] (BMDCs, molar ratio (bile acid/peptide/conjugate):antigen 4:1, mixed with OVA, FIG. 2), the “antigen cross-presentation (B3Z response) compared with OVA alone” value is recorded as “no increase”. Also, the “effect on GII.3 human norovirus infection and replication” value with GII.3 human norovirus is “increase GII.3 human norovirus infection and replication”.
“CA-PQBP1 NLS: cholic acid conjugated to peptide CADREEGKERRHHRREELAPY (SEQ ID NO: 6) (also: cholic acid conjugate, site not given here)”: the “antigen-presentation activity of cholic acid-NLS peptide conjugate (B3Z response OD570)” value with B3Z cells [2] (BMDCs as antigen presenting cells, mixed with OVA at best conjugate:antigen ratio, FIGS. 3-5) is given as “strikingly high antigen-presentation activity”; in the experiment on B3Z cells [3], “strikingly high antigen-presentation activity”. Further, the “OVA internalization (OVA-AF647 fluorescence)” value in experiment [4] was “enhance OVA internalization”. Moreover, the “OVA processing (OVA-DQ fluorescence)” value in experiment [5] was “enhance OVA processing”.
